Experimental findings from US12011444B2, “N-substituted indole derivatives as PGE2 receptor modulators” (Idorsia Pharmaceuticals Ltd, priority 2015, dated 2024) are described below.

One test has as its target PTRGER4 (EP4) (Homo sapiens (Human), UniProt P35408). Nature of the test: hEP4 b-arrestin assay (PathHunter HEK 293 PTGER4 b-arrestin cells). It is filed as cell-based. The settings on record: antagonistic activity on hEP4; mean where measured multiple times. In short, it runs like this:
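Antagonist mode: compound is given 15 min at 37 °C, then 20 nM (final) PGE2 for 120 min, in HEK293 cells stably expressing EP4 fused to ProLink and β-arrestin 2 fused to EA. Recruitment read as β-gal luminescence after 1 h reagent at room temperature, as percent of DMSO control.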

In a further test the target is PTGER2 (EP2) (Homo sapiens (Human), UniProt P43116). Description: hEP2 b-arrestin assay (PathHunter HEK 293 PTGER2 b-arrestin cells). In kind it is cell-based. As to conditions: antagonistic activity on hEP2; mean where measured multiple times. In short, it runs like this:
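Readout is β-galactosidase complementation luminescence, expressed as percent of DMSO control (duplicates). PathHunter HEK293 EP2/β-arrestin 2 cells, grown 24 h, received compound for 15 min at 37 °C before a 120 min challenge with PGE2 at 5 μM final, followed by 1 h detection at room temperature.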

As usually defined, the IC50 is the concentration that inhibits the measured activity by half. Low values mean greater potency in that assay, high ones weaker potency in that assay.

Sequence of PTGER2 (EP2) (P43116 whole entry): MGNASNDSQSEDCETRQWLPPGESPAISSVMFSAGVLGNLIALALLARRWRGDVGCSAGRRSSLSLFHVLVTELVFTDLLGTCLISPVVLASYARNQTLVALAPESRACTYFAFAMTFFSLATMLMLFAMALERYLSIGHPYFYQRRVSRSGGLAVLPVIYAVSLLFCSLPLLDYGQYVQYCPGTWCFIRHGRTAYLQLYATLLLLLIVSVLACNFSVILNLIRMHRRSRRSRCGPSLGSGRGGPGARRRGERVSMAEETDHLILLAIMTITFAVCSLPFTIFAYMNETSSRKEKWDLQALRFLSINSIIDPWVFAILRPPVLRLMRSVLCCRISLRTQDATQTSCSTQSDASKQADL
Sequence of PTRGER4 (EP4) (P35408 whole entry, looked up, the tested form may be a part): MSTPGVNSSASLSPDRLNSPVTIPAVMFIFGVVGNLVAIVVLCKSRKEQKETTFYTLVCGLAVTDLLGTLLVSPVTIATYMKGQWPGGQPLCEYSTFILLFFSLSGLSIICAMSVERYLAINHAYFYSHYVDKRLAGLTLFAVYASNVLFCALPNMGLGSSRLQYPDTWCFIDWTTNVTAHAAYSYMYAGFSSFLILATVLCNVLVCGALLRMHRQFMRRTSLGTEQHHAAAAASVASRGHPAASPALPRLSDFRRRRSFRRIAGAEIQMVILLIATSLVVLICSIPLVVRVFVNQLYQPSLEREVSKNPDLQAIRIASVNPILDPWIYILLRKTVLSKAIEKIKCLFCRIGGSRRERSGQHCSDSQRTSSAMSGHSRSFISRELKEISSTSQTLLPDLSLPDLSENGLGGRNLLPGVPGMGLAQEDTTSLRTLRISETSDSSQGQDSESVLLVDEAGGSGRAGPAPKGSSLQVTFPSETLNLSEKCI

In the case of `COc1cccc2c1cc(C)n2CCNc1cc(-c2ccc(-c3nnc[nH]3)cc2)ncn1` [compound 100, [2-(4-Methoxy-2-methyl-indol-1-yl)-ethyl]-{6-[4-(4H-[1,2,4]triazol-3-yl)-phenyl]-pyrimidin-4-yl}-amine], the IC50 against PTRGER4 (EP4) was determined as 202 nM; against PTGER2 (EP2) it was 11 nM.

Consider `COc1ccc(F)c2c1cc(C)n2CCNc1cc(-c2csc(CO)c2)ncn1` [compound 101], for which the half-inhibitory concentration (IC50) is 548 nM on PTRGER4 (EP4) and 37 nM against PTGER2 (EP2).

With `Cc1c(F)cc2c(cc(C)n2CCNc2cc(-c3ccc(C(=O)O)c(CC(C)C)c3)ncn2)c1F` [compound 102], the 50% inhibitory concentration (IC50) against PTRGER4 (EP4) was determined as 597 nM; at PTGER2 (EP2), 142 nM.

With `CCc1cc(-c2cc(NCCn3c(C)cc4c(C)ccc(F)c43)ncn2)sc1C(=O)O` [compound 103], the IC50 was found to be 58 nM against PTRGER4 (EP4) and 13 nM on PTGER2 (EP2).

Consider `CCc1cc(-c2cc(NCCn3c(C)cc4c(C)cc(F)cc43)ncn2)sc1C(=O)O` [compound 104], for which the IC50 on PTRGER4 (EP4) amounted to 44 nM; at PTGER2 (EP2), 24 nM.

`Cc1cc(F)cc2c1cc(C)n2CCNc1cc(-c2ccc(C(=O)O)c(Cl)c2)ncn1` [compound 105]: the IC50 is 934 nM at PTRGER4 (EP4) and 34 nM against PTGER2 (EP2).

Regarding `Cc1cc(-c2cc(NCCn3c(C)cc4c(Cl)ccc(F)c43)ncn2)ccc1C(=O)O` [compound 106], the results for the concentration for half-maximal inhibition (IC50) on PTRGER4 (EP4) and against PTGER2 (EP2) were 698 nM and 44 nM, respectively.

Regarding `COc1ccc(F)c2c1cc(C)n2CCNc1cc(-c2cc(C)c(C(=O)O)s2)ncn1` [compound 107], the IC50 was 46 nM against PTRGER4 (EP4) and 5 nM against PTGER2 (EP2).

Turning to `CCOc1cc(-c2cc(NCCn3c(C)cc4c(Cl)cccc43)ncn2)sc1C(=O)O` [compound 108], the IC50 against PTRGER4 (EP4) was 15 nM; against PTGER2 (EP2) it was 1 nM.

`COc1ccc(F)c2c1cc(C)n2CCNc1cc(-c2ccc(C(=O)O)cc2)ncn1` [compound 109]: the half-inhibitory concentration (IC50) came to 955 nM on PTRGER4 (EP4) and 49 nM against PTGER2 (EP2).

For the compound `CCc1cc(-c2cc(NCCn3c(C)cc4c(OC)cccc43)ncn2)sc1C(=O)O` [compound 110], the IC50 on PTRGER4 (EP4) is 46 nM; against PTGER2 (EP2) it was 3 nM.

Regarding `COc1ccc(Cl)c2c1cc(C)n2CCNc1cc(-c2cc(F)c(C(=O)O)s2)ncn1` [compound 111], the half-inhibitory concentration (IC50) on PTRGER4 (EP4) turned out to be 166 nM; at PTGER2 (EP2), 31 nM.

With `COc1ccc(F)c2c1cc(C)n2CCNc1cc(-c2cc(F)c(C(=O)O)s2)ncn1` [compound 112], the IC50 on PTRGER4 (EP4) came out at 69 nM; at PTGER2 (EP2) it was 4 nM.

`COc1cc(F)cc2c1cc(C)n2CCNc1cc(-c2cc(F)c(C(=O)O)s2)ncn1` [compound 113]: the IC50 at PTRGER4 (EP4) was 57 nM; on PTGER2 (EP2) it was 8 nM.

For the compound `COc1ccc(F)c2c1cc(C)n2CCNc1cc(-c2cc(Cl)c(C(=O)O)s2)ncn1` [compound 114], the IC50 on PTRGER4 (EP4) came out at 27 nM; against PTGER2 (EP2), 4 nM.

`COc1ccc(F)c2c1cc(C)n2CCNc1cc(-c2ccc3[nH]c(=O)[nH]c3c2)ncn1` [compound 115]: the results for the IC50 against PTRGER4 (EP4) and against PTGER2 (EP2) were 742 nM and 56 nM, respectively.

For the compound `COc1ccc(F)c2c1cc(C)n2CCNc1cc(-c2ccc(S(=O)(=O)O)cc2)ncn1` [compound 116, 4-{6-[2-(7-Fluoro-4-methoxy-2-methyl-indol-1-yl)-ethylamino]-pyrimidin-4-yl}-benzenesulfonic acid], the IC50 came to 382 nM against PTRGER4 (EP4) and 19 nM at PTGER2 (EP2).

Regarding `CCOc1cc(-c2cc(NCCn3c(C)cc4ccc(OC)cc43)ncn2)sc1C(=O)O` [compound 117, 3-Ethoxy-5-{6-[2-(6-methoxy-2-methyl-indol-1-yl)-ethylamino]-pyrimidin-4-yl}-thiophene-2-carboxylic acid], the 50% inhibitory concentration (IC50) was 114 nM against PTRGER4 (EP4) and 1 nM against PTGER2 (EP2).

Consider `CCc1cc(-c2cc(NCCn3c(C)cc4c(CC)cccc43)ncn2)ccc1C(=O)O` [compound 118, 2-Ethyl-4-{6-[2-(4-ethyl-2-methyl-indol-1-yl)-ethylamino]-pyrimidin-4-yl}-benzoic acid], for which the values for the concentration for half-maximal inhibition (IC50) on PTRGER4 (EP4) and at PTGER2 (EP2) were 933 nM and 612 nM, respectively.

For the compound `Cc1cc2ccccc2n1CCNc1cc(-c2ccc(C(=O)O)c(CC(C)C)c2)ncn1` [compound 119, 2-Isobutyl-4-{6-[2-(2-methyl-indol-1-yl)-ethylamino]-pyrimidin-4-yl}-benzoic acid], the figures for the IC50 at PTRGER4 (EP4) and on PTGER2 (EP2) were 941 nM and 18 nM, respectively.

As for `CCCc1cc(-c2cc(NCCn3c(C)cc4c(C)cccc43)ncn2)ccc1C(=O)O` [compound 120, 4-{6-[2-(2,4-Dimethyl-indol-1-yl)-ethylamino]-pyrimidin-4-yl}-2-propyl-benzoic acid], the IC50 at PTRGER4 (EP4) came out at 495 nM; against PTGER2 (EP2), 6 nM.

Turning to `CCc1cc(-c2cc(NCCn3c(C)cc4c(F)ccc(F)c43)ncn2)ccc1C(=O)O` [compound 121, 4-{6-[2-(4,7-Difluoro-2-methyl-indol-1-yl)-ethylamino]-pyrimidin-4-yl}-2-ethyl-benzoic acid], the IC50 on PTRGER4 (EP4) was 765 nM; on PTGER2 (EP2), 5 nM.

Consider `CCc1cc(-c2cc(NCCn3c(C)cc4cc(F)cc(F)c43)ncn2)ccc1C(=O)O` [compound 122, 4-{6-[2-(5,7-Difluoro-2-methyl-indol-1-yl)-ethylamino]-pyrimidin-4-yl}-2-ethyl-benzoic acid], for which the half-maximal inhibitory concentration (IC50) came out at 974 nM against PTRGER4 (EP4) and 9 nM at PTGER2 (EP2).

In the case of `Cc1cc(-c2cc(NCCn3c(C)cc4c(C)ccc(F)c43)ncn2)cc(Cl)c1C(=O)O` [compound 123, 2-Chloro-4-{6-[2-(7-fluoro-2,4-dimethyl-indol-1-yl)-ethylamino]-pyrimidin-4-yl}-6-methyl-benzoic acid], the IC50 was 158 nM against PTRGER4 (EP4) and 30 nM at PTGER2 (EP2).

In the case of `CCOc1cc(-c2cc(NCCn3c(C)cc4c(C)ccc(F)c43)ncn2)ccc1CO` [compound 124, (2-Ethoxy-4-{6-[2-(7-fluoro-2,4-dimethyl-indol-1-yl)-ethylamino]-pyrimidin-4-yl}-phenyl)-methanol], the half-maximal inhibitory concentration (IC50) at PTRGER4 (EP4) turned out to be 151 nM; against PTGER2 (EP2), 7 nM.

For the compound `CCCc1cc(-c2cc(NCCn3c(C)cc4cccc(F)c43)ncn2)ccc1C(=O)O` [compound 125, 4-{6-[2-(7-Fluoro-2-methyl-indol-1-yl)-ethylamino]-pyrimidin-4-yl}-2-propyl-benzoic acid], the half-maximal inhibitory concentration (IC50) against PTRGER4 (EP4) stood at 932 nM; against PTGER2 (EP2) it was 8 nM.

For `Cc1ccc(F)c2c1cc(C)n2CCNc1cc(-c2cc(Br)c(C(=O)O)cc2F)ncn1` [compound 126], the IC50 against PTRGER4 (EP4) amounted to 928 nM; at PTGER2 (EP2), 128 nM.

On to `CCOc1cc(-c2cc(NCCn3c(C)cc4c(OC)cccc43)ncn2)ccc1CO` [compound 127, (2-Ethoxy-4-{6-[2-(4-methoxy-2-methyl-indol-1-yl)-ethylamino]-pyrimidin-4-yl}-phenyl)-methanol], for which the results for the half-inhibitory concentration (IC50) against PTRGER4 (EP4) and against PTGER2 (EP2) were 192 nM and 4 nM, respectively.

Consider `CCOc1cc(-c2cc(NCCn3c(C)cc4c(C)cccc43)ncn2)ccc1C(=O)O` [compound 128, 4-{6-[2-(2,4-Dimethyl-indol-1-yl)-ethylamino]-pyrimidin-4-yl}-2-ethoxy-benzoic acid], for which the IC50 on PTRGER4 (EP4) turned out to be 417 nM; against PTGER2 (EP2), 16 nM.

Regarding `COc1cc(-c2cc(NCCn3c(C)cc4c(C)ccc(F)c43)ncn2)ccc1C(=O)O` [compound 129, 4-{6-[2-(7-Fluoro-2,4-dimethyl-indol-1-yl)-ethylamino]-pyrimidin-4-yl}-2-methoxy-benzoic acid], the IC50 at PTRGER4 (EP4) turned out to be 622 nM; against PTGER2 (EP2), 48 nM.

Consider `COc1cc(-c2cc(NCCn3c(C)cc4c(OC)ccc(F)c43)ncn2)ccc1CO` [compound 130, (4-{6-[2-(7-Fluoro-4-methoxy-2-methyl-indol-1-yl)-ethylamino]-pyrimidin-4-yl}-2-methoxy-phenyl)-methanol], for which the IC50 was 78 nM at PTRGER4 (EP4) and 4 nM against PTGER2 (EP2).

With `COc1cccc2c1cc(C)n2CCNc1cc(-c2cc(C)c(C(=O)O)c(Cl)c2)ncn1` [compound 131, 2-Chloro-4-{6-[2-(4-methoxy-2-methyl-indol-1-yl)-ethylamino]-pyrimidin-4-yl}-6-methyl-benzoic acid], the half-maximal inhibitory concentration (IC50) at PTRGER4 (EP4) was 402 nM; on PTGER2 (EP2) it was 23 nM.

`COc1ccc(F)c2c1cc(C)n2CCNc1cc(-c2ccc(NC(N)=O)cc2)ncn1` [compound 132, (4-{6-[2-(7-Fluoro-4-methoxy-2-methyl-indol-1-yl)-ethylamino]-pyrimidin-4-yl}-phenyl)-urea]: the IC50 against PTRGER4 (EP4) was found to be 277 nM; against PTGER2 (EP2), 43 nM.

For the compound `Cc1cc2ccccc2n1CCNc1cc(-c2ccc3ccncc3c2)ncn1` [compound 133], the IC50 against PTRGER4 (EP4) is 990 nM; at PTGER2 (EP2) it was 29 nM.

Take `CNc1cc(-c2cc(NCCn3c(C)cc4c(F)ccc(F)c43)ncn2)ccc1C(=O)O` [compound 134, 4-{6-[2-(4,7-Difluoro-2-methyl-indol-1-yl)-ethylamino]-pyrimidin-4-yl}-2-methylamino-benzoic acid]: the results for the IC50 against PTRGER4 (EP4) and on PTGER2 (EP2) were 174 nM and 1 nM, respectively.

Consider `Cc1cc(-c2cc(NCCn3c(C)cc4c(C)ccc(F)c43)ncn2)ccc1S(N)(=O)=O` [compound 135], for which the results for the IC50 at PTRGER4 (EP4) and at PTGER2 (EP2) were 288 nM and 96 nM, respectively.

With `CNc1cc(-c2cc(NCCn3c(C)cc4c(C)ccc(F)c43)ncn2)ccc1C(=O)O` [compound 136, 4-{6-[2-(7-Fluoro-2,4-dimethyl-indol-1-yl)-ethylamino]-pyrimidin-4-yl}-2-methylamino-benzoic acid], the half-inhibitory concentration (IC50) on PTRGER4 (EP4) is 48 nM; against PTGER2 (EP2), 5 nM.

Regarding `CCNc1cc(-c2cc(NCCn3c(C)cc4cccc(Cl)c43)ncn2)ccc1C(=O)O` [compound 137, 4-{6-[2-(7-Chloro-2-methyl-indol-1-yl)-ethylamino]-pyrimidin-4-yl}-2-ethylamino-benzoic acid], the 50% inhibitory concentration (IC50) on PTRGER4 (EP4) worked out at 897 nM; against PTGER2 (EP2) it was 2 nM.
